The source of these data is paper PMC3676778, “The Effect of the Aerial Part of Lindera akoensis on Lipopolysaccharides (LPS)-Induced Nitric Oxide Production in RAW264.7 Cells” (International Journal of Molecular Sciences, 2013).

Holding throughout (type): cell-based, murine
The test system of data set [1] is LPS-stimulated production of nitric oxide (NO) in RAW 264.7 cell. Kind of data set: Inhibition of LPS-induced NO (nitrite) production in RAW264.7 cells, Griess reaction. Conditions: RAW 264.7 cells, LPS 100 ng/mL, 24 h, nitrite by Griess, mean ± SD of three replicates. From the text:
NO, produced from L-arginine by NO synthase, has various biological actions, e.g., as a defense and regulatory molecule for homeostatic equilibrium. However, in pathophysiologic conditions, such as inflammation, there is an increased production of NO by inducible NO synthase (iNOS). Macrophages have been expected to be an origin of inflammation, because they contain various chemical mediators that may be responsible for several inflammatory stages. The inhibitory activity toward NO production, induced by lipopolysaccharides (LPS), by murine macrophage-derived RAW264.7 cells, was assayed.
(§1) A murine macrophage cell line RAW264.7 (BCRC No. 60001) was purchased from the Bioresources Collection and Research Center (BCRC) of the Food Industry Research and Development Institute (Hsinchu, Taiwan). Cells were cultured in plastic dishes containing Dulbecco’s Modified Eagle Medium (DMEM, Sigma, St. Louis, MO, USA) supplemented with 10% fetal bovine serum (FBS, Sigma, St. Louis, MO, USA, USA) in a CO2 incubator (5% CO2 in air) at 37 °C and subcultured every 3 days at a dilution of 1:5 using 0.05% trypsin-0.02% EDTA in Ca^2+-, Mg^2+-free phosphate-buffered saline (DPBS).
NO production was indirectly assessed by measuring the nitrite levels in the cultured media and serum determined by a colorimetric method based on the Griess reaction. The cells were incubated with butanolides (0, 3.125, 6.25, 12.5, 25 and 50 μg/mL) in the presence of LPS (100 ng/mL) at 37 °C for 24 h. Then, cells were dispensed into 96-well plates, and 100 μL of each supernatant was mixed with the same volume of Griess reagent (1% sulfanilamide, 0.1% naphthyl ethylenediamine dihydrochloride and 5% phosphoric acid) and incubated at room temperature for 10 min; the absorbance was measured at 540 nm with a Micro-Reader (Molecular Devices Orleans Drive, Sunnyvale, CA, USA). Serum samples were diluted four times with distilled water and deproteinized by adding 1/20 volume of zinc sulfate (300 g/L) to a final concentration of 15 g/L. After centrifugation at 10,000× g for 5 min at room temperature, 100 μL supernatant was applied to a microtiter plate well, followed by 100 μL of Griess reagent. After 10 min of color development at room temperature, the absorbance was measured at 540 nm with a Micro-Reader. By using sodium nitrite to generate a standard curve, the concentration of nitrite was measured form absorbance at 540 nm.
(§2) IC50 values were estimated using a non-linear regression algorithm (SigmaPlot 8.0; SPSS Inc., Chicago, IL, USA, 2002). Statistical evaluation was carried out by one-way analysis of variance (ANOVA followed by Scheffe’s multiple range tests).

Data set [2] can be described thus: Cell viability (MTT) of RAW264.7 cells in the presence of LPS. Conditions: mouse, RAW264.7 macrophage cells, RAW 264.7 cells, 100 ng/mL LPS, mean ± SD of three replicates, read-out: Cytotoxicity IC50. As for the experimental part: as §1
(§3) Cells (2 × 105) were cultured in 96-well plate containing DMEM supplemented with 10% FBS for 1 day to become nearly confluent. Then cells were cultured with compounds 1–5 in the presence of 100 ng/mL LPS (lipopolysaccharide) for 24 h. After that, the cells were washed twice with DPBS and incubated with 100 μL of 0.5 mg/mL MTT for 2 h at 37 °C testing for cell viability. The medium was then discarded, and 100 μL dimethyl sulfoxide (DMSO) was added. After 30-min incubation, the absorbance at 570 nm was read using a microplate reader (Molecular Devices, Sunnyvale, CA, USA).
as §2

The next data set deals with RAW264.7 cells. The description is as above. Conditions: RAW 264.7 cells, 100 ng/mL LPS, 24 h, mean ± SD of three replicates, read-out: Cytotoxicity IC50. As for the experimental part: as §1, §3, §2

On to `CCCCCCCCCC/C=C/[C@@H]1C(=O)O[C@@H](C)[C@H]1O` [Compound 1, 3α-((E)-Dodec-1-enyl)-4β-hydroxy-5β-methyldihydrofuran-2-one], for which inhibition in data set [1] (Mus musculus, RAW264.7) was half-maximal at 20.1 ± 0.3 µM (IC50). For the same molecule, in data set [2], the IC50 at 24 h amounted to 78 ± 5.1 µM.
In data set [1] (Mus musculus, RAW264.7), `C#CCCCCCCCCC/C=C1\C(=O)O[C@@H](C)[C@@H]1O` [Compound 4, (3Z,4α,5β)-3-(dodec-11-ynylidene)-4-hydroxy-5-methylbutanolide] registered a half-inhibitory concentration (IC50) of 21.7 ± 0.4 µM. The concentration for half-maximal inhibition (IC50) at 24 h in data set [2] came to 139 ± 2.8 µM.
Regarding (+)-pinoresinol [Compound 9], the IC50 in data set [1] was 90.4 ± 8.6 µM; in the data set with RAW264.7 cells, greater than 279 µM.
In data set [1] (Mus musculus, RAW264.7), `COc1cc([C@H]2OC[C@H]3[C@@H]2CO[C@@H]3c2cc(OC)c(O)c(OC)c2)cc(OC)c1O` [Compound 8, syringaresinol] gave a concentration for half-maximal inhibition (IC50) of 49.7 ± 4.5 µM. In addition, the IC50 at 24 h in data set [2] is greater than 239 µM.
In data set [1] (Mus musculus, RAW264.7), `Oc1cc(O)c2c(c1)O[C@H](c1ccc(O)c(O)c1)[C@H](O)C2` [Compound 15, epicatechin] displayed an IC50 of 352 ± 37.4 µM. Further, the IC50 at 24 h in data set [2] is greater than 517 µM.
In the case of `Oc1cc(O)c2c(c1)O[C@H](c1ccc(O)c(O)c1)[C@@H](O)C2` [Compound 14, catechin], the half-maximal inhibitory concentration (IC50) in data set [1] (Mus musculus, RAW264.7) amounted to 414 ± 6.9 µM. The IC50 at 24 h in data set [2] was greater than 517 µM.
`COc1cc(C[C@H]2COC(=O)[C@@H]2Cc2ccc(O)c(OC)c2)ccc1O` [Compound 7, matairesinol] displayed a half-maximal inhibitory concentration (IC50) in data set [1] (Mus musculus, RAW264.7) of 179 ± 12.1 µM. Moreover, the IC50 at 24 h in data set [2] was greater than 279 µM.
Consider `COc1ccc(-c2oc3cc(O)cc(O)c3c(=O)c2OC2OC(C)C(OC(=O)C=Cc3ccc(O)cc3)C(O)C2O)cc1` [Compound 11, 4′-O-methylkaempferol 3-O-α-L-(4″-E-p-coumaroyl)rhamnoside], for which the IC50 in data set [1] (Mus musculus, RAW264.7) was determined as 62.5 ± 2.2 µM. Moreover, the IC50 at 24 h in data set [2] was greater than 84.5 µM.
In the same order, the values of `CCCCCCCCCCC/C=C1/C(=O)O[C@@H](C)[C@H]1O` [Compound 3, 3-epilistenolide D2] are 4.5 ± 0.1 µM and 27.7 ± 1.6 µM.
On the same counts, the results for `C[C@@H]1O[C@@H](Oc2c(-c3ccc(O)cc3)oc3cc(O)cc(O)c3c2=O)[C@H](O)[C@H](O)[C@H]1OC(=O)/C=C/c1ccc(O)cc1` [Compound 13, 4″-p-coumaroylafzelin] are 76.9 ± 7.3 µM and greater than 86.5 µM.
`COc1cc(C2OCC3C(=O)OCC32)ccc1O` (stereo not shown) [Compound 10, salicifoliol] returned an IC50 in data set [1] (Mus musculus, RAW264.7) of 312 ± 14.1 µM. In addition, the IC50 at 24 h in data set [2] was greater than 400 µM.
Consider `COc1ccc2c(c1)c(CC(=O)O)c(C)n2C(=O)c1ccc(Cl)cc1` [indomethacin, reference compound], for which the IC50 in data set [1] (Mus musculus, RAW264.7) turned out to be 183 ± 5.5 µM.
`COc1cc(CC2COCC2Cc2ccc3c(c2)OCO3)ccc1O` (stereo not shown) [Compound 6, linderinol] displayed an IC50 in data set [1] (Mus musculus, RAW264.7) of 196 ± 4 µM. In data set [2], the concentration for half-maximal inhibition (IC50) at 24 h is greater than 292 µM.
Molecule `C#CCCCCCCCCC/C=C1/C(=O)O[C@@H](C)[C@H]1O` [Compound 5, (3E,4β,5β)-3-(dodec-11-ynylidene)-4-hydroxy-5-methylbutanolide] displayed an IC50 in data set [1] (Mus musculus, RAW264.7) of 33.4 ± 1 µM. Also, the IC50 at 24 h in data set [2] is 143 ± 1.9 µM.
In data set [1] (Mus musculus, RAW264.7), `CCCCCCCCCCC/C=C1\C(=O)O[C@@H](C)[C@H]1O` [Compound 2, 3-epilistenolide D1] yielded a concentration for half-maximal inhibition (IC50) of 4.1 ± 0.1 µM. Besides, in data set [2], the IC50 at 24 h was found to be 32.6 ± 0.5 µM.
In the same order, the values of `C[C@@H]1O[C@@H](Oc2c(-c3ccc(O)cc3)oc3cc(O)cc(O)c3c2=O)[C@H](O)[C@H](O)[C@H]1OC(=O)/C=C\c1ccc(O)cc1` [Compound 12, kaempferol 3-O-α-L-(4″-Z-p-coumaroyl) rhamnoside] are 67.9 ± 1.9 µM and greater than 86.5 µM.
